Assay results published in patent US10040788B2, “1,3,4-thiadiazole compounds and their use in treating cancer” (AstraZeneca AB, priority 2014, dated 2018).
Like-named read-outs stand apart in the source and are kept apart here.

Legend:
cellular GLS activity = cellular GLS activity (Homo sapiens (Human), UniProt O94925); assay: GLS Cell Potency Assay (PC3 coupled assay measuring cellular glutamate depletion); format: cell-based; conditions: PC3 cells, 6 h incubation, cellular glutamate depletion; geometric mean where repeated; read-out: Assay b) GLS Cell Potency Assay IC50
Description: (§1) The following assays were used to measure the effects of the compounds of the present invention: a) GLS Enzyme Potency Assay; b) GLS Cell Potency Assay; c) GLS Cell Proliferation Assay; and d) Mouse Xenograft Model. During the description of the assays, generally: • i. The following abbreviations have been used: CO2=Carbon dioxide; DMEM=Dulbecco's Modified Eagle Medium; DMSO=Dimethyl sulphoxide; EDTA=Ethylenediaminetetraacetic acid; EGTA=Ethylene glycol tetraacetic acid; FCS=Foetal calf serum; h=Hour(s); NBS=Non-binding surface; SDS=Sodium dodecyl sulphate; r.t.=room temperature; TRIS=Tris(Hydroxymethyl)aminomethane. • ii. […]
Compounds were assessed for their potential to inhibit cellular GLS activity by use of a PC3 coupled assay measuring cellular glutamate depletion. […] DMSO concentration was maintained at 0.3% by back filling with DMSO solution. PC3 cells were grown in phenol free DMEM, 10% dialyzed FCS, 2 mM glutamine and following dispersal by trypsinisation were plated at 5.6×10^3 cells per well in 40 μl of growth medium directly into the 384 well assay plates containing dispensed compound. After incubation for 6 h at 37° C., 5% CO2 growth media was aspirated and cells lysed in 15 μl of buffer containing 10 mM TRIS pH7.4, 100 mM NaCl, 1 mM EDTA, 1 mM EGTA, 1 mM NaF, 20 mM Na4P2O7, 2 mM Na3VO4, 1% Triton X-100, 10% glycerol, 0.1% SDS and 0.5% deoxycholate.

GLS1 = GLS1 (Homo sapiens (Human), UniProt O94925); assay: GLS Enzyme Potency Assay (Glutamate Oxidase/AmplexRed coupled assay); format: biochemical; conditions: 6His tagged GLS protein (amino acids 63-669); geometric mean where repeated
Description: The following assays were used to measure the effects of the compounds of the present invention: a) GLS Enzyme Potency Assay; b) GLS Cell Potency Assay; c) GLS Cell Proliferation Assay; and d) Mouse Xenograft Model. During the description of the assays, generally: • i. The following abbreviations have been used: CO2=Carbon dioxide; DMEM=Dulbecco's Modified Eagle Medium; DMSO=Dimethyl sulphoxide; EDTA=Ethylenediaminetetraacetic acid; EGTA=Ethylene glycol tetraacetic acid; FCS=Foetal calf serum; h=Hour(s); NBS=Non-binding surface; SDS=Sodium dodecyl sulphate; r.t.=room temperature; TRIS=Tris(Hydroxymethyl)aminomethane. • ii. IC50 values were calculated using a smart fitting model in Genedata. […] Assay a): GLS Enzyme Potency Assay
A Glutamate Oxidase/AmplexRed coupled assay was used to measure the ability of compounds to bind to and inhibit the activity of GLS1 in vitro. […] GLS1 was diluted to 2× working concentration and incubated at r.t. to allow the tetrameric/dimeric forms to reach steady state. Assay measurements were performed in buffer comprising 50 mM TRIS pH 7.8, 100 mM NaPO4, pH 7.8, 0.001% v/v Tween20. […] DMSO concentration was maintained at 2% by back filling with DMSO solution. […] 3 μL of 100 mM glutamine diluted in assay buffer was then added and the reaction incubated at r.t. for 60 minutes. […] An artefact version of the assay where the 6His tagged GLS protein and glutamine were replaced with assay buffer was also used to rule out non specific effects on the assay components.

NCI-H1703 cells = assay: GLS Cell Proliferation Assay (NCI-H1703); format: cell-based, human
Description: as §1
The ability of compounds to inhibit cell growth was measured using a 384 well plate NCI-H1703 cell proliferation assay. NCI-H1703 cells were grown in phenol red free RPMI1640, 10% FCS and 2 mM glutamine and seeded at a density of 750 cells per well in 40 μl of growth medium into clear-bottom 384 well assay plates (Corning product code 3712) and incubated for 24 h at 37° C., 5% CO2. […] DMSO concentration was maintained at 0.3% by back filling with DMSO solution. Plates were incubated for 5 days at 37° C., 5% CO2, Sytox Green and Saponin added to final concentration of 2 μM and 0.25% respectively and incubated for 6 h prior to analysis. Plates were read on an Acumen eX3 (TTP Labtech) using 488 nm excitation and FITC filter set (500-530 nm) for emission. IC50 values were calculated by curve fitting to max inhibition of day zero growth using GeneData software analysis.

[1] = Homo sapiens, 120 h; NCI-H1703 cells, 5 days incubation; geometric mean where repeated; read-out: Assay c) GLS Cell Proliferation Assay

Chain of cellular GLS activity (O94925 55-669): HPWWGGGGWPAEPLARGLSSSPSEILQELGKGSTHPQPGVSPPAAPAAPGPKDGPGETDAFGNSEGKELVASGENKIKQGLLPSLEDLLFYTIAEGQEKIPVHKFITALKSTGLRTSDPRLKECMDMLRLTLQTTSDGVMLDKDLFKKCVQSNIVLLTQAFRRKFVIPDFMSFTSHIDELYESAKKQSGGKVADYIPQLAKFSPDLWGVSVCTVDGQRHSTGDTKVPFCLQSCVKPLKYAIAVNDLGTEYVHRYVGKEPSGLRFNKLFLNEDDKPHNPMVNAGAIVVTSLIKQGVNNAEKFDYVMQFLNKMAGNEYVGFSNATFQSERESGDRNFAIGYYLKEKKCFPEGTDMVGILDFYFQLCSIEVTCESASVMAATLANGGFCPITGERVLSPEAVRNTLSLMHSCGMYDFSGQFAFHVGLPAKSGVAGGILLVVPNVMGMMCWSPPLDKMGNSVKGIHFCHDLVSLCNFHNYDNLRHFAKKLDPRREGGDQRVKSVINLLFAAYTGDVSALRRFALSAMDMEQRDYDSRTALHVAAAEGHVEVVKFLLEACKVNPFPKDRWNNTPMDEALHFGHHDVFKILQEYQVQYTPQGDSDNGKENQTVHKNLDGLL
Chain of GLS1 (O94925 63-669): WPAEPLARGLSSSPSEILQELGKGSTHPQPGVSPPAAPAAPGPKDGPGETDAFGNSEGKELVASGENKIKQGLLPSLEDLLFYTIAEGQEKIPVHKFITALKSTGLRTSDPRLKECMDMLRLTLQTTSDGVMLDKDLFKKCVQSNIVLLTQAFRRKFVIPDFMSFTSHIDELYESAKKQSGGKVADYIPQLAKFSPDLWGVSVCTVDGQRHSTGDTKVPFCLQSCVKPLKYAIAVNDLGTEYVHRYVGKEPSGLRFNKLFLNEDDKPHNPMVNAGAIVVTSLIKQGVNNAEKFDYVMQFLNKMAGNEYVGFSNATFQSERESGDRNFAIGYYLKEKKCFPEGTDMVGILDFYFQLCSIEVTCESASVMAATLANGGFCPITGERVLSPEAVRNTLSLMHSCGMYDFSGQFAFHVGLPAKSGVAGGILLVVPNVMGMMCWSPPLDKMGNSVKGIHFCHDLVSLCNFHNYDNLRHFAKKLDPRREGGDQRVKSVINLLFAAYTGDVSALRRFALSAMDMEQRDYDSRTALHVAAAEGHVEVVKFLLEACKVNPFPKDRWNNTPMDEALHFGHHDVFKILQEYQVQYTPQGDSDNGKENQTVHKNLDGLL

Structure (SMILES) | IC50 (cellular GLS activity) | IC50 (GLS1) | IC50 (NCI-H1703 cells; [1]) | IC50 (NCI-H1703 cells; NCI-H1703 cells, 5 days incubation; geometric mean where repeated; read-out: Assay c) GLS Cell Proliferation Assay)
CO[C@@H](C(=O)Nc1nnc(N[C@@H]2CCN(c3nccnn3)C2)s1)c1cccc(OC(F)F)c1 [19(b), (2R)-2-[3-(difluoromethoxy)phenyl]-2-methoxy-N-[5-[[(3R)-1-(1,2,4-triazin-3-yl)pyrrolidin-3-yl]amino]-1,3,4-thiadiazol-2-yl]acetamide] | 37.4 nM | 519 nM | – | –
CO[C@H](C(=O)Nc1nnc(N[C@@H]2CCN(c3cccnn3)C2)s1)c1cccc(OC(F)(F)F)c1 [Example 9(a), (2S)-2-Methoxy-N-[5-[[(3R)-1-pyridazin-3-ylpyrrolidin-3-yl]amino]-1,3,4-thiadiazol-2-yl]-2-[3-(trifluoromethoxy)phenyl]acetamide] | 0.14 nM | 18.6 nM | 0.725 nM | –
CCO[C@@H](C(=O)Nc1nnc(N[C@@H]2CCN(c3cccnn3)C2)s1)c1ccccc1 [Example 10(b), (2R)-2-Ethoxy-2-phenyl-N-[5-[[(3R)-1-pyridazin-3-ylpyrrolidin-3-yl]amino]-1,3,4-thiadiazol-2-yl]acetamide] | 13 nM | 110 nM | 234 nM | –
CCO[C@@H](C(=O)Nc1nnc(N[C@@H]2CCN(c3nccnn3)C2)s1)c1ccc(OC)cc1 [29(b), (2R)-2-ethoxy-2-(4-methoxyphenyl)-N-[5-[[(3R)-1-(1,2,4-triazin-3-yl)pyrrolidin-3-yl]amino]-1,3,4-thiadiazol-2-yl]acetamide] | 134 nM | 1370 nM | 1960 nM | –
CO[C@@H](C(=O)Nc1nnc(N[C@@H]2CCN(c3nccnn3)C2)s1)c1cccc(OC(F)F)c1 [Example 6(b), (2R)-2-[3-(Difluoromethoxy)phenyl]-2-methoxy-N-[5-[[(3R)-1-(1,2,4-triazin-3-yl)pyrrolidin-3-yl]amino]-1,3,4-thiadiazol-2-yl]acetamide] | 37 nM | 519 nM | 81.7 nM | –
CCO[C@@H](C(=O)Nc1nnc(N[C@@H]2CCN(c3nccnn3)C2)s1)c1cccc(OC)c1 [27(b), (2R)-2-ethoxy-2-(3-methoxyphenyl)-N-[5-[[(3R)-1-(1,2,4-triazin-3-yl)pyrrolidin-3-yl]amino]-1,3,4-thiadiazol-2-yl]acetamide] | 19.5 nM | 844 nM | 337 nM | –
COc1cccc([C@H](OC)C(=O)Nc2nnc(N[C@@H]3CCN(c4cccnn4)C3)s2)c1 [Example 5(a), (2S)-2-Methoxy-2-(3-methoxyphenyl)-N-[5-[[(3R)-1-pyridazin-3-ylpyrrolidin-3-yl]amino]-1,3,4-thiadiazol-2-yl]acetamide] | 0.19 nM | 21.5 nM | 3.38 nM | –
CO[C@H](C(=O)Nc1nnc(N[C@@H]2CCN(c3nccnn3)C2)s1)c1cccc(OC(F)F)c1 [19(a), (2S)-2-[3-(difluoromethoxy)phenyl]-2-methoxy-N-[5-[[(3R)-1-(1,2,4-triazin-3-yl)pyrrolidin-3-yl]amino]-1,3,4-thiadiazol-2-yl]acetamide] | 2.54 nM | 85.1 nM | – | 16.6 nM
CCO[C@H](C(=O)Nc1nnc(N[C@@H]2CCN(c3cccnn3)C2)s1)c1ccccc1 [Example 10(a), (2S)-2-Ethoxy-2-phenyl-N-[5-[[(3R)-1-pyridazin-3-ylpyrrolidin-3-yl]amino]-1,3,4-thiadiazol-2-yl]acetamide] | 0.91 nM | – | 10.9 nM | –

Continued by falling IC50 (cellular GLS activity), values first:

IC50 (cellular GLS activity) | IC50 (GLS1) | IC50 (NCI-H1703 cells; [1]) | Structure (SMILES) | IC50 (NCI-H1703 cells; NCI-H1703 cells, 5 days incubation; geometric mean where repeated; read-out: Assay c) GLS Cell Proliferation Assay)
168 nM | 1480 nM | 2900 nM | CCO[C@@H](C(=O)Nc1nnc(N[C@@H]2CCN(c3nccnn3)C2)s1)c1ccccc1 [34(b), (2R)-2-ethoxy-2-phenyl-N-[5-[[(3R)-1-(1,2,4-triazin-3-yl)pyrrolidin-3-yl]amino]-1,3,4-thiadiazol-2-yl]acetamide] | –
65 nM | 168 nM | 518 nM | COc1cc([C@@H](OC)C(=O)Nc2nnc(N[C@@H]3CCN(c4cccnn4)C3)s2)ccc1F [Example 14(b), (2R)-2-(4-Fluoro-3-methoxy-phenyl)-2-methoxy-N-[5-[[(3R)-1-pyridazin-3-ylpyrrolidin-3-yl]amino]-1,3,4-thiadiazol-2-yl]acetamide] | –
56.1 nM | 135 nM | 630 nM | COc1ccc([C@@H](OC)C(=O)Nc2nnc(N[C@@H]3CCN(c4cccnn4)C3)s2)cc1OC [25(b), (2R)-2-(3,4-dimethoxyphenyl)-2-methoxy-N-[5-[[(3R)-1-pyridazin-3-ylpyrrolidin-3-yl]amino]-1,3,4-thiadiazol-2-yl]acetamide] | –
18.7 nM | 155 nM | 404 nM | CCO[C@@H](C(=O)Nc1nnc(N[C@@H]2CCN(c3nccnn3)C2)s1)c1ccc(F)cc1 [35(b), (2R)-2-ethoxy-2-(4-fluorophenyl)-N-[5-[[(3R)-1-(1,2,4-triazin-3-yl)pyrrolidin-3-yl]amino]-1,3,4-thiadiazol-2-yl]acetamide] | –
15.7 nM | – | 168 nM | COc1cccc([C@H](OC)C(=O)Nc2nnc(N[C@@H]3CCN(c4cncnn4)C3)s2)c1 [21(a), (2S)-2-methoxy-2-(3-methoxyphenyl)-N-[5-[[(3R)-1-(1,2,4-triazin-6-yl)pyrrolidin-3-yl]amino]-1,3,4-thiadiazol-2-yl]acetamide] | –
14 nM | 170 nM | 560 nM | CCO[C@@H](C(=O)Nc1nnc(N[C@@H]2CCN(c3cccnn3)C2)s1)c1ccc(F)cc1 [Example 13(b), (2R)-2-Ethoxy-2-(4-fluorophenyl)-N-[5-[[(3R)-1-pyridazin-3-ylpyrrolidin-3-yl]amino]-1,3,4-thiadiazol-2-yl]acetamide] | –
1.81 nM | 35.4 nM | 68.5 nM | COc1ccc([C@H](OC)C(=O)Nc2nnc(N[C@@H]3CCN(c4cccnn4)C3)s2)cc1OC [25(a), (2S)-2-(3,4-dimethoxyphenyl)-2-methoxy-N-[5-[[(3R)-1-pyridazin-3-ylpyrrolidin-3-yl]amino]-1,3,4-thiadiazol-2-yl]acetamide] | –
0.96 nM | 27 nM | 18.3 nM | CCO[C@H](C(=O)Nc1nnc(N[C@@H]2CCN(c3cccnn3)C2)s1)c1ccc(F)cc1 [Example 13(a), (2S)-2-Ethoxy-2-(4-fluorophenyl)-N-[5-[[(3R)-1-pyridazin-3-ylpyrrolidin-3-yl]amino]-1,3,4-thiadiazol-2-yl]acetamide] | –
0.401 nM | 31 nM | 10.8 nM | COc1ccc([C@H](OC)C(=O)Nc2nnc(N[C@@H]3CCN(c4cccnn4)C3)s2)cc1 [Example 11, (2S)-2-Methoxy-2-(4-methoxyphenyl)-N-[5-[[(3R)-1-pyridazin-3-ylpyrrolidin-3-yl]amino]-1,3,4-thiadiazol-2-yl]acetamide] | –
0.39 nM | 29 nM | 3.24 nM | CO[C@H](C(=O)Nc1nnc(N[C@@H]2CCN(c3cncnn3)C2)s1)c1ccccc1 [Example 3, (2S)-2-Methoxy-2-phenyl-N-[5-[[(3R)-1-(1,2,4-triazin-6-yl)pyrrolidin-3-yl]amino]-1,3,4-thiadiazol-2-yl]acetamide] | –
